Test results: patent US10085449B2, “N-[1-((6-chloropyridin-3-yl)methyl)pyridin-2(1H)-ylidene]-2,2,2- trifluoroacetamide for control of agricultural/horticultural pests” (priority 2010, dated 2018)
Where two headings read alike, the source gives them in different places.

Tests used:
Type in all cases: in vivo
[1] = tested on: brown rice planthopper having a low susceptibility to insecticides; parameters: key to Brown rice planthopper, Kumamoto low susceptibility (rice soil drenching), effect: mortality %, dead/(live+dead) ×100; details: for Mortality: all the lines (susceptible line, field-collected lines I and II); for Insecticidal effects (mortality), brown rice planthopper second-instar larvae: soil drenching treatment
Protocol: Rice seedlings grown in pots were subjected to soil drenching treatment with solutions of the inventive compounds at a predetermined concentration prepared to 10% acetone/water. Three days after treatment, ten second-instar brown rice planthopper larvae having a low susceptibility to insecticides were released onto each seedling. The seedlings and insects were then held in an incubation chamber at 25° C. (16-hour period of light, 8-hour dark period). Three days after released, the numbers of live and dead insects were counted, and the mortality was calculated from the following formula. The test was carried out as two replications. Mortality (%)=[number of dead insects/(number of live insects+number of dead insects)]×100
The pests used in this test were insects that had been raised indoors for successive generations over a long period of time (susceptible line), and insects that had been raised indoors for successive generations after being collected (I) in 2007 within Kumamoto Prefecture and (II) in 2005 within Fukuoka Prefecture (field-collected lines).

cotton aphid = assay: whole plant or invertebrate; details: Aphis gossypii, foliar
In short: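 Cucumber leaf discs (2.0 cm) sprayed with compound in 50% acetone/water with 0.05% Tween 20, air-dried, then infested with first-instar cotton aphids. Held at 25 °C under 16 h light/8 h dark; mortality counted after 3 days, two replicates.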

greenhouse whitefly = assay: whole plant or invertebrate; details: Cucumis sativus, foliar, 336 h
Protocol: Adult greenhouse whiteflies were released onto cucumber plants grown in pots, and allowed to laid eggs overnight. One day after the start of oviposition, the adults were removed, and the plants and eggs were held in an incubation chamber at 25° C. (16-hour period of light, 8-hour dark period). Three days after the end of oviposition, leaf discs 2.0 cm in diameter were cut from the cucumber plants and, after confirming oviposition thereon, the leaf discs were sprayed with solutions of the inventive compounds at a predetermined concentration prepared to 50% acetone/water (containing 0.05% Tween 20). After spraying, the treated leaf discs were held in an incubation chamber at 25° C. (16-hour period of light, 8-hour dark period). Fourteen days after spraying, the numbers of live and dead insects were counted, and the mortality was calculated from the following formula. This was a two-replication test. Mortality (%)=[(number of oviposited eggs−number of live insects)/number of oviposited eggs]×100

[2] = read-out: Insecticidal effects (mortality), cotton aphid first-instar larvae

**Q.** With `O=C(N=c1ccccn1Cc1ccc(Cl)nc1)C(F)(F)F` [Compound 212, N-[1-((6-chloropyridin-3-yl)methyl)pyridin-2(1H)-ylidene]-2,2,2-trifluoroacetamide] as the compound, how does the Mortality ([1]; 0.005 mg/seedling soil drenching) read?
**A.** at least 90%

**Q.** What about the Mortality ([1]; 0.05 mg/seedling soil drenching) of the same compound?
**A.** 100%

**Q.** What about the “Brown rice planthopper, Kumamoto low susceptibility (rice soil drenching), effect” value ([1]; 0.005 mg/pot) of the same compound?
**A.** 90

**Q.** What about the “Brown rice planthopper, Kumamoto low susceptibility (rice soil drenching), effect” value ([1]; 0.05 mg/pot) of the same compound?
**A.** 100

**Q.** And the “Insecticidal effects (mortality), brown rice planthopper second-instar larvae” value ([1]; 0.02 mg/pot)?
**A.** 100

**Q.** And the “Insecticidal effects (mortality), brown rice planthopper second-instar larvae” value ([1]; 0.05 mg/pot)?
**A.** 100

**Q.** What about the mortality at 1.25 ppm (cotton aphid; [2]) of the same compound?
**A.** 100%

**Q.** What about the mortality at 5 ppm (cotton aphid; [2]) of the same compound?
**A.** 95%

**Q.** And the mortality at 20 ppm (cotton aphid; [2])?
**A.** 100%

**Q.** What about the mortality at 100 ppm (cotton aphid; [2]) of the same compound?
**A.** 100%

**Q.** And the mortality at 500 ppm (cotton aphid; [2])?
**A.** 100%

**Q.** What about the mortality at 20 ppm (cotton aphid; in Cucumis sativus, 72 h) of the same compound?
**A.** ≥ 80%

**Q.** And the mortality at 100 ppm (cotton aphid; in Cucumis sativus, 72 h)?
**A.** ≥ 80%

**Q.** And the mortality at 500 ppm (cotton aphid; in Cucumis sativus, 72 h)?
**A.** ≥ 80%

**Q.** And the mortality at 100 ppm (greenhouse whitefly)?
**A.** ≥ 80%
